{"source": "patent US20080299599A1", "about": "“FLUORESCENT PROTEINS FOR MONITORING INTRACELLULAR SUPEROXIDE PRODUCTION” (priority 2006, published 2008)", "key": {"[1]": {"test_system": "superoxide flashes in rat cardiac myocytes", "test": "Confocal imaging of superoxide flashes in cardiac myocytes expressing mt-cpYFP", "type": "cell-based", "conditions": "for occurrence of superoxide flashes: cardiac myocytes", "description": "Similar conditions were used when expressing mt-cpYFP in other cell types. […] Briefly, cells were loaded with 4 μM rhod-2 AM (after NaBH4 quenching) at 4° C. for 1 hr, and then changed to normal culture medium for 4 hrs. […] Digital image processing was performed using IDL software (Research Systems) and customer-devised programs."}, "[2]": {"test_system": "cellular ROS production", "conditions": "previous finding, Aon et al. 2003; cited from earlier work"}, "[3]": {"test_system": "rat PC12 pheochromocytoma cells", "type": "cell-based", "conditions": "for occurrence of superoxide flashes: ρ− PC12 cells; for incidence of superoxide flashes: ethidium bromide 200 ng/ml for 60 days, PC12 cells", "source_text": "(§1) Enzymatically isolated rat ventricular myocytes and hippocampal neurons in primary culture were infected with adenovirus carrying the mt-cpYFP gene or its mutants at an m.o.i. of 1:100 and cultured for 2 to 3 days (Zhou et al., Am. J. Physiol. Heart Circ. Physiol., 279; H429-H436, 2000). Similar conditions were used when expressing mt-cpYFP in other cell types. To obtain spatially and temporally resolved fluorescent images of mt-cpYFP, a Zeiss LSM 510 confocal microscope equipped with a 63×, 1.3NA oil immersion objective and a sampling rate of 0.7 s/frame was used. Dual wavelength excitation imaging of mt-cpYFP was achieved by alternating excitation at 405 and 488 nm and collecting emission at >505 nm. Tri-wavelength excitation imaging of mt-cpYFP and TMRM (20 nM) or rhod-2 was achieved by tandem excitation at 405, 488, and 543 nm, and the emission was collected at 515-550, 515-550 and >560 nm, respectively. To increase mitochondrion retention of rhod-2, the indicator loading protocol described by Hajnoczky C et al. was used with modification (Hajnoczky et al., Cell, 82: 415-424, 2000). Briefly, cells were loaded with 4 μM rhod-2 AM (after NaBH4 quenching) at 4° C. for 1 hr, and then changed to normal culture medium for 4 hrs. The standard extracellular perfusion solution contained (in mM): NaCl 137, KCl 4.9, CaCl21, MgSO4 1.2, NaH2PO4 1.2, glucose 15, and HEPES 20 (pH 7.4). Digital image processing was performed using IDL software (Research Systems) and customer-devised programs.\n(§2) ρ° 143B TK human osteosarcoma cells and its wild type control were a generous gift from Dr. Nadja C. de Souza-Pinto (National Institute on Aging, NIH). Wild type and ρ° 143B cells were cultured under identical conditions, in DMEM medium supplemented with 10% FBS, 100 μg/ml pyruvate, 100 μg/ml bromodeoxyuridine and 50 μg/ml uridine17. Mitochondria of ρ° 143B cells completely lack mitochondrial respiration, due to the loss of critical ETC proteins including constituents of complex I (ND1-6, ND4L), complex III (cytochrome b) and complex IV (COX I-III) encoded by mitochondrial DNA. To partially deplete mitochondrial DNA and allow partial disruption of mitochondrial respiration, PC12 pheochromocytoma cells were cultured in DMEM medium with 10% FBS, 200 ng/ml ethidium bromide, 100 μg/ml pyruvate and 50 μg/ml uridine for up to 60 days. Depletion of mitochondrial DNA was evidenced by western blot analysis of cytochrome C oxidase subunit I."}, "[4]": {"test": "Spectral analysis of purified cpYFP: in vitro redox calibration and response to ROS and metabolites", "type": "biochemical", "description": "cpYFP cDNA (807 bp) was cloned into a prokaryotic expression vector (pRSET) and transferred into E. Coli cell line (BL21(DE3)LysS) for large-scale protein expression. In vitro redox calibration of cpYFP fluorescence was carried out using methods described previously (Hanson et al., J. Biol. Chem., 279: 13044-13053, 2004). Briefly, under an inert environment, purified cpYFP protein (1 μM) was incubated with either 10 mM reduced DTT or 1 mM aldrithiol for at least 3 hours, allowing for solution equilibration. Reduced DTT was removed from the solution allowing measurement of cpYFP response to various ROS and metabolites. The calibration solution contained (in mM): HEPES 75, KCl 125, and EDTA 1, pH=8.0. Emission and excitation spectra of reduced and oxidized cpYFP in the presence of designated reagents were obtained with a spectrofluorimeter (Model: CM1T101, HORIBA Jobin Yvon, Inc.) filled with nitrogen gas.\nUsing cpYFP purified from an E. coli expression system, excitation and emission fluorescence spectra were measured in response to reducing (10 mM reduced DTT) and oxidizing manipulations (1 mM aldrithiol). […] Extensive in vitro experiments were performed to determine the selectivity of cpYFP among physiologically relevant oxidants and metabolites. […] The cpYFP signal, however, was insensitive to hydrogen peroxide (H2O2) over a wide range of concentrations (0.1-10 mM) (FIG. 1c) and peroxynitrite (FIG. 2), and was decreased by hydroxyl radicals (.OH) (FIG. 1c) and nitric oxide (FIG. 2)."}, "[5]": {"test_system": "ρ° 143B TK-human osteosarcoma cells", "test": "Superoxide flashes in mitochondrial DNA-deleted ρ° 143B cells", "type": "cell-based", "conditions": "atractyloside 20 μM", "source_text": "as §1, with “Digital image processing was performed using IDL software (Research Systems) and customer-devised programs.” left out"}, "[6]": {"test_system": "superoxide flashes in cardiac myocytes", "test": "Superoxide flashes in cardiac myocytes during hypoxia and reoxygenation", "type": "cell-based, rat", "conditions": "diazoxide 30 μM added 20 min prior to hypoxia", "source_text": "as §1, with “Digital image processing was performed using IDL software (Research Systems) and customer-devised programs.” left out"}, "[7]": {"test_system": "cytochrome C oxidase subunit I (COX-1)", "test": "Western blot of cytochrome C oxidase subunit I in ethidium bromide-treated PC12 cells", "type": "cell-based, rat", "conditions": "ethidium bromide 200 ng/ml for 60 days", "description": "as §2"}}, "note": "Read-outs that look alike come from different tables or passages of the source.", "data": [{"compound": "O=S(=O)(O)c1cc(O)c(O)c(S(=O)(=O)O)c1", "note": "[tiron]", "values": [{"measurement": "effect on frequency and amplitude of flashes", "setting": "[1]; tiron 1 mM", "value": "similarly diminished the frequency and amplitude of flashes"}]}, {"compound": "antimycin A", "values": [{"measurement": "effect on cellular ROS production measured with DCF", "setting": "[2]", "value": "increases cellular ROS production"}, {"measurement": "occurrence of superoxide flashes", "setting": "[1]; antimycin A 5 μg/ml", "value": "virtually abolished"}, {"measurement": "occurrence of superoxide flashes", "setting": "[3]; antimycin A 5 μg/ml", "value": "virtually abolished"}]}, {"compound": "cpYFP: circularly permuted yellow fluorescent protein; superoxide probe of SEQ ID NO. 1, pericam without calmodulin and M13 domains", "values": [{"measurement": "brightness of oxidized cpYFP versus fully reduced species", "setting": "[4]; 1 mM aldrithiol vs 10 mM reduced DTT, excited at 488 nm", "value": "about five times brighter"}, {"measurement": "cpYFP signal response to other metabolites", "setting": "[4]; ATP, ADP, NAD(P)+, NAD(P)H and Ca2+ at physiological concentrations", "value": "negligible or only marginal effects"}, {"measurement": "cpYFP signal response to hydroxyl radicals", "setting": "[4]; Fenton reaction, 1 mM H2O2 plus 0.1 mM FeSO4, anaerobic", "value": "decreased"}, {"measurement": "cpYFP signal response to hydrogen peroxide", "setting": "[4]; H2O2 0.1-10 mM", "value": "insensitive"}, {"measurement": "cpYFP signal response to peroxynitrite", "setting": "[4]; SIN-1 1 mM in aerobic solution", "value": "insensitive"}, {"measurement": "cpYFP signal response to nitric oxide", "setting": "[4]; SIN-1 1 mM in anaerobic solution", "value": "decreased"}, {"measurement": "cpYFP brightness dependence on pH", "setting": "[4]; basic environments, e.g. mitochondrial matrix pH 8.0", "value": "brighter in basic environments"}, {"measurement": "increase of cpYFP fluorescence in response to O2.−", "setting": "[4]; xanthine/xanthine oxidase (2 mM/20 mU), aerobic, compared to fully reduced state", "value": 420, "unit": "%"}]}, {"compound": "C=C1[C@@H]2CC[C@H]3[C@]4(C)C[C@H](O[C@@H]5O[C@H](CO)[C@@H](OS(=O)(=O)O)[C@H](OS(=O)(=O)O)[C@H]5OC(=O)CC(C)C)C[C@@H](C(=O)O)[C@H]4CC[C@]3(C2)[C@H]1O", "note": "[atractyloside]", "values": [{"measurement": "effect on superoxide flash frequency", "setting": "[1]; atractyloside 20 μM", "value": "significantly augment superoxide flash frequency"}, {"measurement": "rescue of superoxide flashes in ρ° cells", "setting": "[5]", "value": "cannot be rescued"}]}, {"compound": "MnTMPyP", "values": [{"measurement": "inhibition of flash activity", "setting": "[1]; MnTMPyP 50 μM", "value": 83, "unit": "%"}, {"measurement": "flash amplitude (ΔF/F0)", "setting": "[1]; MnTMPyP 50 μM, n=12, p<0.01 vs control", "value": "0.18±0.02"}]}, {"compound": "CO[C@H](C/C=C\\C=C\\CC/C=C/C[C@H](C)/C=C/C(=C\\C(=O)O)CC(=O)O)/C(C)=C\\C=C(/C)C(=O)O", "note": "[bongkrekic acid]", "values": [{"measurement": "effect on superoxide flash amplitude", "setting": "[1]; bongkrekic acid 100 μM", "value": "reducing their amplitude"}, {"measurement": "effect on superoxide flash kinetics", "setting": "[1]; bongkrekic acid 100 μM", "value": "abbreviating their kinetics"}, {"measurement": "incidence of superoxide flashes", "setting": "[1]; bongkrekic acid 100 μM", "value": "33 % of control"}]}, {"compound": "CC1=NS(=O)(=O)c2cc(Cl)ccc2N1", "note": "[diazoxide]", "values": [{"measurement": "effect on rebound flurry of superoxide flash activity after reoxygenation", "setting": "[6]", "value": "effectively protected the cells from the rebound flurry of superoxide flash activity"}]}, {"compound": "CC[n+]1c(-c2ccccc2)c2cc(N)ccc2c2ccc(N)cc21", "note": "[ethidium bromide]", "values": [{"measurement": "incidence of superoxide flashes", "setting": "[3]", "value": "60 % of control"}, {"measurement": "incidence of superoxide flashes", "setting": "[3]; wild type 63±6", "value": "23±3 events per 1000 μm2 cell area per 100 s"}, {"measurement": "cytochrome C oxidase subunit I (COX-1) expression", "setting": "[7]", "value": "70 % of control"}]}, {"compound": "C=C(C)[C@H]1Cc2c(ccc3c2O[C@@H]2COc4cc(OC)c(OC)cc4[C@@H]2C3=O)O1", "note": "[Rotenone]", "values": [{"measurement": "occurrence of superoxide flashes", "setting": "[1]; rotenone 5 μM", "value": "virtually abolished"}, {"measurement": "occurrence of superoxide flashes", "setting": "[3]; rotenone 5 μM", "value": "virtually abolished"}]}, {"compound": "C160A/C182A: SEQ ID NO. 1 with both cysteines C160 and C182 substituted to alanine", "values": [{"measurement": "response of the probe to superoxide after cysteine substitution", "setting": "[1]; residue numbering of SEQ ID NO. 1", "value": "completely abolishes the response of the probe to superoxide"}]}]}
